Laboratory results from patent publication EP3708171A1, “TREATMENT OF VITAMIN D DEFICIENCY WITH 25(OH) VITAMIN D IN CRITICALLY ILL PATIENTS” (Bouillon, Roger, priority 2019, dated 2020).

How the values were obtained:
[1] = Randomized, placebo-controlled pilot study of IV 25OHD supplementation in critically ill (ICU) patients; serum vitamin D metabolites and DBP (Example 1); assay type: in vivo
Procedure: The study was performed in accordance with the 1964 Declaration of Helsinki and its later amendments. The protocol and consent forms were approved by the institutional review board of the University Hospitals Leuven (ML2462). The study was registered at www.controlled-trials.com (ISRCTN24385496). Patients with an anticipated stay in the intensive care unit (ICU) of more than 10 days were eligible for inclusion in the study. Patients younger than 18 years, those suffering from chronic bone or kidney disease, and those who were treated with glucocorticoids before ICU admission were excluded. Patients were compared with healthy controls matched for age, gender and body mass index, of whom blood was sampled during summer time.
Upon ICU admission, patients were randomly allocated to either a daily IV injection of placebo (NaCl 0.9%) or to an IV loading dose of 200 µg 25OHD, followed by an IV replacement dose of 15 µg 25OHD per day, from ICU admission onward and continued for 10 days. Patients from both groups also received the usual vitamin D supplement, which consisted of a daily intravenous cholecalciferol supplement of +/-200 IU (5 µg, as part of 10 ml of Cernevit® (Clinitec-Baxter, Brussels, Belgium). 25OHD was obtained from Solvay Pharmaceuticals (Brussels, Belgium) and dissolved in ethanol by the hospital pharmacy under laminar flow conditions in glass vials, containing 200 µg/ml per vial for the loading dose and 15 µg/ml per vial for the replacement dose. A purity control was performed on the prepared samples using HPLC. Similarly, placebo vials were also prepared by the hospital pharmacy (1 ml NaCl 0.9% per vial). All vials were blinded by the hospital pharmacy.
The effect of IV 25OHD supplementation on vitamin D status (25OHD, 1,25(OH)2D, 24,25(OH)2D) was studied. Clinical outcome parameters (organ dysfunction (sequential organ failure assessment (SOFA) score, days on mechanical ventilation, need for renal replacement therapy), prolonged (>3 days) antibiotic therapy, ICU length of stay and mortality) were registered as safety endpoints. All patients were followed up and monitored for possible adverse events beyond the intervention period of 10 days until discharge or death. Analysts and investigators were blinded for treatment allocation.
Every day at 06.00 a.m., from ICU admission until ICU discharge or death, undiluted blood samples were taken through an arterial line that had been placed for clinical purposes. Serum and plasma samples were frozen and subsequently stored at -20°C until assay. Concentrations of 25OHD, 1,25(OH)2D, and 24,25(OH)2D were measured in serum.
25OHD was measured by competitive binding assay; 1,25(OH)2D by radioimmunoassay (RIA), and DBP by radial immunodiffusion, as previously reported by Bouillon et al (J Clin Invest 1981 67 589-596). A subset of the original 25OHD measurements were subsequently validated by re-analyses using LC-MS/MS, currently considered the gold standard. To this end, 58 samples from patients (treated with 25OHD or placebo) and controls were selected at random covering the full range of 25OHD serum concentrations (3.7-70.7 ng/ml). Briefly, serum proteins were precipitated using zinc sulphate solution, spiked with d6-25OHD3 as internal standard. After mixing and centrifugation, the supernatant was transferred to the liquid chromatography autosampler. We used a ScieX 5500 QTRAP mass spectrometer connected with a Shimadzu chromatographic system. The method consisted of an online clean-up step using a Strata C8 extraction cartridge. After loading and cleaning, the analytes were eluted by back-flushing. A Kinetex F5 column was used as analytical column. Atmospheric-pressure chemical ionization (APCI) positive mode was used. Mass transitions of 383>211, 295>211 and 389>211 were used for 25OHD3, 25OHD2 and the internal standard, respectively. Within-run and between-run CVs at clinically relevant concentrations varied between 6.3-7.4% and 6.9-8.8% respectively. […]

[2] = Further trial of IV 25OHD with higher replacement dose in critically ill patients (Example 2); assay type: in vivo; conditions: IV loading dose, then 25 µg 25OHD per day for 10 days
Procedure: The study design and materials are similar to the one described in Example 1, the difference being that the patients are administered higher bolus and daily replacement doses of 25OHD for at least two days after the bolus administration and preferably during the hospital stay of such patients .
The study is performed in accordance with the 1964 Declaration of Helsinki and its later amendments. Patients with an anticipated stay in the intensive care unit (ICU) of more than 10 days are considered eligible for inclusion in the study. […]
The effect of IV 25OHD supplementation on vitamin D status (25OHD) is studied. […] All patients are followed up and monitored for possible adverse events beyond the intervention period of 10 days until discharge or death. […]
Every day at 06.00 a.m., from ICU admission until ICU discharge or death, undiluted blood samples are taken through an arterial line that is present for clinical purposes. […] Concentrations of 25OHD are measured in serum.
StatView 5.0.1 (SAS Institute Inc., Cary, NC) and JMP13 (SAS) is used for the statistical analyses. […] Variables with a normal distribution are analyzed with Student's t-test, variables with a non-normal distribution with Mann-Whitney U, and proportions with the chi-square test. […]

[3] = normal subjects; cited from earlier work
[4] = cited from earlier work
[5] = daily administration of 15 µg 25(OH)D (Ingels et al. 2010)

Row | Compound | 25OHD serum concentration as compared with placebo ([1]; 10-day period, IV replacement dose 15 µg 25OHD per day) | concentrations of 1,25(OH)2D ([1]; IV 200 µg loading dose, then 15 µg/day for 10 days) | increase in serum 25OHD after bolus ([1]; IV loading dose of 200 µg 25OHD) [ng/mL] | increase of 25OHD levels ([1]; daily supplement of 15 µg of 25OHD) | 25OHD serum concentrations ([1]; following the intravenous loading dose of 200 µg 25OHD, 20 ng/ml target) | increase of 25OHD levels in the subgroup receiving the active treatment ([1]; from 9.2 ng/ml baseline) [ng/mL] | catabolism of 25OHD in ICU patients versus normal subjects of the same age ([1]; human, in vivo) | Vd ([1]; human, in vivo, iv) [L] | safety endpoints (clinical outcome parameters) [2] | increase of serum 25OHD per daily dose of 1 ug of 25OHD [3] [ng/mL] | level of 1,25(OH)2D3 [4, 5] | serum levels of 25OHD [4, 5] | outcome of critically ill patients ([4]; oral, high dose, except subgroup with baseline severe vitamin D deficiency (lower hospital mortality))
1 | C=C1CC[C@H](O)C/C1=C/C=C1\CCC[C@]2(C)[C@@H]([C@H](C)CCCC(C)(C)O)CC[C@@H]12 [25OHD, 25-hydroxyvitamin D] | remained elevated throughout the 10-day period | only transiently increased | 11 | about 8 ng/ml | instantly rose but did not reach the 20 ng/ml target | 6.8 | at least 3 fold | ~18 | positive effects | 1.2 | only a transient increase | increased the serum levels of 25OHD | –
2 | C=C1CC[C@H](O)C/C1=C/C=C1\CCC[C@]2(C)[C@@H]([C@H](C)CCCC(C)C)CC[C@@H]12 [vitamin D3] | – | – | – | – | – | – | – | – | – | – | – | – | did not affect outcome
